Source: patent US8541598B2, “Biodegradable solvents for the chemical industry” (Dublin City University, priority 2007, dated 2013)
“Also recorded” adds a separate entry of the source.

Tested on: Pseudomonas aeruginosa, Escherichia coli, Klebsiella sp., Salmonella sp., Staphylococcus aureus, Enterococcus sp., Bacillus subtilis
Assay: Antimicrobial activity / minimum inhibitory concentrations on seven strains of bacteria
Format: cell-based
Conditions: for toxicity / antibacterial activity in words: seven strains of bacteria; for MIC values: seven strains, not split, range tested 0-20000 μg/ml
Experimental: Seven strains of bacteria were used in the assessment of the antimicrobial activity of the ILs claimed: 4 gram negative and three gram positive as shown below.
A wide concentration range was tested (0-20000 μg/ml). The concentrations screened for antibacterial activity are generally from 2 μg/ml to 1000 μg/ml (Table 6). […] The concentration range screened for the ILs containing ethers was up to 20000 μg/ml. At these high concentrations a lack of antibacterial activity is a significant result.

| Compound | toxicity / antibacterial activity in words | MIC values |
| --- | --- | --- |
| 2,3-dimethyl-1-(2-[2-methoxyethoxy]ethoxycarbonylmethyl)imidazolium BF4 [KG72] | non-toxic | >20000 KG72 μg/ml |
| CCCCOCCOC(=O)Cn1cc[n+](C)c1C.N#C[N-]C#N [KG84, 2,3-dimethyl-1-(2-[2-butoxy]ethoxycarbonylmethyl)imidazolium N(CN)2] | non-toxic | >20000 KG84 μg/ml |
| COC(C)NC(=O)C[n+]1ccn(C)c1.[Br-] (stereo not shown) [KG422, (3-methyl-1-[1-methoxyethyl]carbamylmethyl)imidazolium bromide] | low toxicity; also recorded: non-toxic | >20000 KG422 μg/ml |
| 2,3-dimethyl-1-(2-[2-methoxyethoxy]ethoxycarbonylmethyl)imidazolium PF6 [KG33] | non-toxic | >20000 KG33 μg/ml |
| 3-methyl-1-(2-[2-propoxy]ethoxycarbonylmethyl)imidazolium BF4 [KG64] | non-toxic | >20000 KG64 μg/ml |
| CCCOCCOC(=O)Cn1cc[n+](C)c1.O=S(=O)([N-]S(=O)(=O)C(F)(F)F)C(F)(F)F [KG51, 3-methyl-1-(2-[2-propoxy]ethoxycarbonylmethyl)imidazolium NTf2] | non-toxic | 10000 KG51 μg/ml |
| 3-methyl-1-(2-[2-butoxyethoxy]ethoxycarbonylmethyl)imidazolium BF4 [KG69] | non-toxic | >20000 KG69 μg/ml |
| COC(C)N(C(=O)Cn1cc[n+](C)c1)C(C)OC.[Br-] (stereo not shown) [KG407, (3-methyl-1-[bis-1-methoxyethyl]carbamylmethyl)imidazolium bromide] | low toxicity; also recorded: non-toxic | >20000 KG407 μg/ml |
| 3-methyl-1-(2-[2-methoxyethoxy]ethoxycarbonylmethyl)imidazolium PF6 [KG27] | non-toxic | 2500 KG27 μg/ml |
| CCOCCOC(=O)C[n+]1ccn(C)c1.N#C[N-]C#N [KG76, 3-methyl-1-(2-[2-ethoxy]ethoxycarbonylmethyl)imidazolium N(CN)2] | non-toxic | >20000 KG76 μg/ml |
| 3-methyl-1-(2-[2-propoxyethoxy]ethoxycarbonylmethyl)imidazolium BF4 [KG68] | non-toxic | >20000 KG68 μg/ml |
| 3-methyl-1-(2-[2-methoxy]ethoxycarbonylmethyl)imidazolium bromide [KG7] | non-toxic | >20000 KG7 μg/ml |
| CCOCCOCCOC(=O)Cn1cc[n+](C)c1.N#C[N-]C#N [KG80, 3-methyl-1-(2-[2-ethoxyethoxy]ethoxycarbonylmethyl)imidazolium N(CN)2] | non-toxic | >20000 KG80 μg/ml |
| 3-methyl-1-(2-[2-ethoxyethoxy]ethoxycarbonylmethyl)imidazolium BF4 [KG67] | non-toxic | >20000 KG67 μg/ml |
| CCCCOC(=O)Cn1cc[n+](C)c1.N#C[N-]C#N [KG73, 3-Methyl-1-(butoxycarbonylmethyl) imidazolium N(CN)2^−] | – | 5000 KG73 μg/ml |
| 3-methyl-1-(2-[2-propoxyethoxy]ethoxycarbonylmethyl)imidazolium PF6 [KG29] | non-toxic | >20000 KG29 μg/ml |
| CCCCOCCOC(=O)Cn1cc[n+](C)c1.N#C[N-]C#N [KG78, 3-methyl-1-(2-[2-butoxy]ethoxycarbonylmethyl)imidazolium N(CN)2] | non-toxic | >20000 KG78 μg/ml |
| 2,3-dimethyl-1-(2-[2-butoxy]ethoxycarbonylmethyl)imidazolium PF6 [KG32] | non-toxic | >20000 KG32 μg/ml |
| CCOCCOCCOC(=O)C[n+]1ccn(C)c1.O=S(=O)([N-]S(=O)(=O)C(F)(F)F)C(F)(F)F [KG54, 3-methyl-1-(2-[2-ethoxyethoxy]ethoxycarbonylmethyl)imidazolium NTf2] | non-toxic | >20000 KG54 μg/ml |
| 3-methyl-1-(2-[2-ethoxy]ethoxycarbonylmethyl)imidazolium PF6 [KG24] | non-toxic | >20000 KG24 μg/ml |
| 3-methyl-1-(2-[2-propoxy]ethoxycarbonylmethyl)imidazolium PF6 [KG25] | non-toxic | >20000 KG25 μg/ml |

| Compound | toxicity / antibacterial activity in words | MIC values |
| --- | --- | --- |
| COCCOCCOC(=O)Cn1cc[n+](C)c1C.O=S(=O)([N-]S(=O)(=O)C(F)(F)F)C(F)(F)F [KG59, 2,3-dimethyl-1-(2-[2-methoxyethoxy]ethoxycarbonylmethyl)imidazolium NTf2] | non-toxic | >20000 KG59 μg/ml |
| 3-methyl-1-(2-[2-butoxy]ethoxycarbonylmethyl)imidazolium BF4 [KG65] | non-toxic | >20000 KG65 μg/ml |
| Cc1n(CC(=O)N2CCCC2)cc[n+]1C.[Br-] [KG421, 2,3-dimethyl-1-(pyrrolidinylcarbonylmethyl)imidazolium bromide, reference compound] | – | >20000 KG421 μg/ml |
| C[n+]1ccn(CC(=O)N2CCCC2)c1.[Br-] [KG420, 3-methyl-1-(pyrrolidinylcarbonylmethyl)imidazolium bromide, reference compound] | – | >20000 KG420 μg/ml |
| COCCOC(=O)Cn1cc[n+](C)c1.O=S(=O)([N-]S(=O)(=O)C(F)(F)F)C(F)(F)F [KG49, 3-methyl-1-(2-[2-methoxy]ethoxycarbonylmethyl)imidazolium NTf2] | non-toxic | 10000 KG49 μg/ml |
| COCCOCCOC(=O)C[n+]1ccn(C)c1C.N#C[N-]C#N [KG85, 2,3-dimethyl-1-(2-[2-methoxyethoxy]ethoxycarbonylmethyl)imidazolium N(CN)2] | non-toxic | >20000 KG85 μg/ml |
| CCC(NC(=O)Cn1cc[n+](C)c1)OC.[Br-] (stereo not shown) [KG423, (3-methyl-1-[1-methoxypropyl]carbamylmethyl)imidazolium bromide] | low toxicity | >20000 KG423 μg/ml |
| CCCCOCCOC(=O)C[n+]1ccn(C)c1C.O=S(=O)([N-]S(=O)(=O)C(F)(F)F)C(F)(F)F [KG58, 2,3-dimethyl-1-(2-[2-butoxy]ethoxycarbonylmethyl)imidazolium NTf2] | non-toxic | >20000 KG58 μg/ml |
| CCCOCCOCCOC(=O)Cn1cc[n+](C)c1.N#C[N-]C#N [KG81, 3-methyl-1-(2-[2-propoxyethoxy]ethoxycarbonylmethyl)imidazolium N(CN)2] | non-toxic | >20000 KG81 μg/ml |
| 3-methyl-1-(2-[2-methoxy]ethoxycarbonylmethyl)imidazolium BF4 [KG62] | non-toxic | >20000 KG62 μg/ml |
| 3-methyl-1-(2-[2-butoxyethoxy]ethoxycarbonylmethyl)imidazolium PF6 [KG30] | non-toxic | >20000 KG30 μg/ml |
| 2,3-dimethyl-1-(2-[2-butoxy]ethoxycarbonylmethyl)imidazolium BF4 [KG71] | non-toxic | >20000 KG71 μg/ml |
| CCCCOCCOC(=O)Cn1cc[n+](C)c1.O=S(=O)([N-]S(=O)(=O)C(F)(F)F)C(F)(F)F [KG52, 3-methyl-1-(2-[2-butoxy]ethoxycarbonylmethyl)imidazolium NTf2] | non-toxic | >20000 KG52 μg/ml |
| CCOCCOC(=O)C[n+]1ccn(C)c1.O=S(=O)([N-]S(=O)(=O)C(F)(F)F)C(F)(F)F [KG50, 3-methyl-1-(2-[2-ethoxy]ethoxycarbonylmethyl)imidazolium NTf2] | non-toxic | >20000 KG50 μg/ml |
| CCCOCCOCCOC(=O)C[n+]1ccn(C)c1.O=S(=O)([N-]S(=O)(=O)C(F)(F)F)C(F)(F)F [KG55, 3-methyl-1-(2-[2-propoxyethoxy]ethoxycarbonylmethyl)imidazolium NTf2] | non-toxic | >20000 KG55 μg/ml |
| 3-methyl-1-(2-[2-ethoxyethoxy]ethoxycarbonylmethyl)imidazolium PF6 [KG28] | non-toxic | >20000 KG28 μg/ml |
| COCCOC(=O)Cn1cc[n+](C)c1.N#C[N-]C#N [KG75, 3-methyl-1-(2-[2-methoxy]ethoxycarbonylmethyl)imidazolium N(CN)2] | non-toxic | >20000 KG75 μg/ml |
| 3-methyl-1-(2-[2-butoxy]ethoxycarbonylmethyl)imidazolium PF6 [KG26] | non-toxic | >20000 KG26 μg/ml |
| CCCCOCCOCCOC(=O)Cn1cc[n+](C)c1.N#C[N-]C#N [KG82, 3-methyl-1-(2-[2-butoxyethoxy]ethoxycarbonylmethyl)imidazolium N(CN)2] | non-toxic | >20000 KG82 μg/ml |
| CCCCOCCOCCOC(=O)Cn1cc[n+](C)c1.O=S(=O)([N-]S(=O)(=O)C(F)(F)F)C(F)(F)F [KG56, 3-methyl-1-(2-[2-butoxyethoxy]ethoxycarbonylmethyl)imidazolium NTf2] | non-toxic | >20000 KG56 μg/ml |
